Three compounds from patent US7273717B2 (priority 2003, dated 2007) can be followed below.

Read-outs that look alike come from different tables or passages of the source. Peptide text beside a SMILES is read from it. * marks the point of attachment. Cbz = O=C(OCc1ccccc1)* Some results are limits rather than exact numbers.

The target of one assay is GS-9005 hydrolase B. In kind it is biochemical, human.
For another assay, the target named is GS-9005 hydrolase A. In kind it is biochemical, human. Particulars: pH 6.5; read-out: Inhibition profile IC50, 9005 Hydrolase A.
Setting [1] is: pH 6.5, read-out: Inhibition profile IC50, 9005 Hydrolase B.
Where [2] appears, read: read-out: concentration at which GS-9005 hydrolase B is inhibited by 50%.

On to `CCOP(=O)(OCC)Oc1ccc([N+](=O)[O-])cc1` [paraoxon], for which the IC50 was 0.02 µM at GS-9005 hydrolase B (setting [1]), roughly 0.02 µM on GS-9005 hydrolase B (setting [2]) and 0.03 µM at GS-9005 hydrolase A.

As to `O=c1oc(Cl)c(Cl)c2ccccc12` [3,4 DCI, 3,4 dichloroisocoumarin], the “inhibition of GS-9005 hydrolase B (in words)” value in the assay on GS-9005 hydrolase B is given as “inhibited”. The IC50 at GS-9005 hydrolase B (setting [1]) is 4 µM; at GS-9005 hydrolase B (setting [2]), roughly 4 µM; on GS-9005 hydrolase A it was greater than 150 µM.

In the case of `O=C[C@@H]1CCCN1C(=O)[C@@H]1CCCN1C(=O)OCc1ccccc1` [Cbz-pro-pro-COH, Carboxybenzoyl-Pro-Pro-COH] (Cbz-Pro-Pro-aldehyde), the IC50 at GS-9005 hydrolase B (setting [1]) and at GS-9005 hydrolase B (setting [2]) was greater than 100 µM each time.
